Columns and labels:
Details in all cases: Compound concentration 10 µM
[1] = target: 5-hydroxytryptamine receptor 1B (Homo sapiens) (UniProt P28222)
[2] = target: T1, Alpha-2C adrenergic receptor (Homo sapiens) (UniProt P18825)
T1 sequence (whole entry): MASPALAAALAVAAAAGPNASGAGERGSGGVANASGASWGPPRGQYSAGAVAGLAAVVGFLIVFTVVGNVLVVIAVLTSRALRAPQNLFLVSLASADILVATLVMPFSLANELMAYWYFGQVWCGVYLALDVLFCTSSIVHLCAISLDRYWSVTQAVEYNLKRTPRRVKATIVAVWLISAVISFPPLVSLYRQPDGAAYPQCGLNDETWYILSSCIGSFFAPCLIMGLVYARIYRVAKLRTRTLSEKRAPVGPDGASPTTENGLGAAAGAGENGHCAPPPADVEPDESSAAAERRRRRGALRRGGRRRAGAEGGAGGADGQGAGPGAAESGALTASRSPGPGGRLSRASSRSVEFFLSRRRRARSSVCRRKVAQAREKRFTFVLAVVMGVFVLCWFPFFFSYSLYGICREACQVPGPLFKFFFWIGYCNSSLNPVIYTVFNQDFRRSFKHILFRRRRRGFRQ

[3] = target: T2, D(4) dopamine receptor (Homo sapiens) (UniProt P21917)
T2 sequence (whole entry): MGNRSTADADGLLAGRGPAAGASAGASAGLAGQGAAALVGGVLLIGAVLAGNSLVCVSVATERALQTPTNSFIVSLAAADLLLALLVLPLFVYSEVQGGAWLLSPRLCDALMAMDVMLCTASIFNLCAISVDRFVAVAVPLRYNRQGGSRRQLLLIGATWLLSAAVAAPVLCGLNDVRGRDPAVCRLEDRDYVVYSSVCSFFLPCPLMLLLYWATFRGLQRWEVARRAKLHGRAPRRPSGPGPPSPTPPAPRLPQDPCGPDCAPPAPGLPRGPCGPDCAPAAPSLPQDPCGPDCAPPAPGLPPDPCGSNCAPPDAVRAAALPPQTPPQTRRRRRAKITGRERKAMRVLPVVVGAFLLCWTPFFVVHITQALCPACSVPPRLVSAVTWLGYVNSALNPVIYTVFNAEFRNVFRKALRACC

[4] = target: Histamine H3 receptor (Homo sapiens) (UniProt Q9Y5N1)
Histamine H3 receptor (Homo sapiens), sequence (Q9Y5N1 whole entry): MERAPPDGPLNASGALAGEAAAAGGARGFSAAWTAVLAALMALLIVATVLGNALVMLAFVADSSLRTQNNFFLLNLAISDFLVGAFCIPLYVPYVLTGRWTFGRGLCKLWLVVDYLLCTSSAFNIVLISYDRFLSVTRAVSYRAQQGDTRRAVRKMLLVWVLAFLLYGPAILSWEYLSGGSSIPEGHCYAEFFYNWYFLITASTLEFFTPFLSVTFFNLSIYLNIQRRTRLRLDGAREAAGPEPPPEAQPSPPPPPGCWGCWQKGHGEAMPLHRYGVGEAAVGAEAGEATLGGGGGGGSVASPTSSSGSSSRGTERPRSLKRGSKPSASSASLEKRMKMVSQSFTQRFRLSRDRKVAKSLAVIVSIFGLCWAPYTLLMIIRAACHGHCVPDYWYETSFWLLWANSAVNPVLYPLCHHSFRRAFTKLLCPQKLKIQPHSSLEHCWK

[5] = target: D(2) dopamine receptor (Homo sapiens) (UniProt P14416)
D(2) dopamine receptor (Homo sapiens), sequence (P14416 whole entry): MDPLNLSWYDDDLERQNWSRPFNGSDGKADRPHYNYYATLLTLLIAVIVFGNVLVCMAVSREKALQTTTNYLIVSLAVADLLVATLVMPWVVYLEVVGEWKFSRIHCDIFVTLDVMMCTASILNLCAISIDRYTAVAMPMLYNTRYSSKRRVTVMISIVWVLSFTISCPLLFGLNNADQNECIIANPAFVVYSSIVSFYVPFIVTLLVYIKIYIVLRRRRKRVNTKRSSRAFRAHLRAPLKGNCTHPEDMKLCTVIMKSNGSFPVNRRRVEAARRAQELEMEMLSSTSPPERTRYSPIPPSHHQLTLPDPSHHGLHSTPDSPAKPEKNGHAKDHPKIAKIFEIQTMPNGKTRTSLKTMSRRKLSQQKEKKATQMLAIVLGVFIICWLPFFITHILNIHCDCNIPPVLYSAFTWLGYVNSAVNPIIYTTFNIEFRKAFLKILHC

[6] = target: T3, Alpha-2B adrenergic receptor (Homo sapiens) (UniProt P18089)
T3 sequence (whole entry): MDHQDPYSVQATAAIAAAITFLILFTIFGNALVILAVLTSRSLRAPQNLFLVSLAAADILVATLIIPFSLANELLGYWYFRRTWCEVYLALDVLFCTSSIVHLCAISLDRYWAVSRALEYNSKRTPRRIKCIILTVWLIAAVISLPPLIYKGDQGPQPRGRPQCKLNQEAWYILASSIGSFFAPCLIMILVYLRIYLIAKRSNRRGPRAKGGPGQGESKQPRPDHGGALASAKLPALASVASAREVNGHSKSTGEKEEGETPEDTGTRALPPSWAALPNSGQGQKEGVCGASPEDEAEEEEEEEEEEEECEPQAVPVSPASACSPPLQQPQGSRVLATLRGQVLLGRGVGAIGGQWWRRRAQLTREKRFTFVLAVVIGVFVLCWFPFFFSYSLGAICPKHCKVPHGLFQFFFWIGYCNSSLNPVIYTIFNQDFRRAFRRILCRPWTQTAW

[7] = target: Sigma non-opioid intracellular receptor 1 (Homo sapiens) (UniProt Q99720)
Sigma non-opioid intracellular receptor 1 (Homo sapiens), sequence (Q99720 whole entry): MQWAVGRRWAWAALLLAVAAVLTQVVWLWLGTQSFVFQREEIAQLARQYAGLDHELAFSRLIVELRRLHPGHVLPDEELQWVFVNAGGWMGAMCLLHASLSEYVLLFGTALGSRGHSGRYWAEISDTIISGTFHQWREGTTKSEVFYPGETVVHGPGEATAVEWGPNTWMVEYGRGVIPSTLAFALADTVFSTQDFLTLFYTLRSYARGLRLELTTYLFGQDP

[8] = target: 5-hydroxytryptamine receptor 7 (Homo sapiens) (UniProt P34969)
5-hydroxytryptamine receptor 7 (Homo sapiens), sequence (P34969 whole entry): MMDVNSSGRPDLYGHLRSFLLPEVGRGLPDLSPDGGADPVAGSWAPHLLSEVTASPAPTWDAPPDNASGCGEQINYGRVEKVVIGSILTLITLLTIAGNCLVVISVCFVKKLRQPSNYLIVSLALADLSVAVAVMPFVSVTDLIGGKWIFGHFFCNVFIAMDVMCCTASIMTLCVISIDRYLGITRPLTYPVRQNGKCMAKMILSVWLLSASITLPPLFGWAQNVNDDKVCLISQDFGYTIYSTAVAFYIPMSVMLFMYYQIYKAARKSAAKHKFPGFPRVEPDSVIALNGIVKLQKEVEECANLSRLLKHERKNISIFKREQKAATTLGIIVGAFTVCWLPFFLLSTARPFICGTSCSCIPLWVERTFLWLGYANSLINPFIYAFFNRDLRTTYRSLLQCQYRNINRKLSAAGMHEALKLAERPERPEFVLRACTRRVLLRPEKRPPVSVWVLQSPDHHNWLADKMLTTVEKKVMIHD

[9] = target: Histamine H2 receptor (Homo sapiens) (UniProt P25021)
Histamine H2 receptor (Homo sapiens), sequence (P25021 whole entry): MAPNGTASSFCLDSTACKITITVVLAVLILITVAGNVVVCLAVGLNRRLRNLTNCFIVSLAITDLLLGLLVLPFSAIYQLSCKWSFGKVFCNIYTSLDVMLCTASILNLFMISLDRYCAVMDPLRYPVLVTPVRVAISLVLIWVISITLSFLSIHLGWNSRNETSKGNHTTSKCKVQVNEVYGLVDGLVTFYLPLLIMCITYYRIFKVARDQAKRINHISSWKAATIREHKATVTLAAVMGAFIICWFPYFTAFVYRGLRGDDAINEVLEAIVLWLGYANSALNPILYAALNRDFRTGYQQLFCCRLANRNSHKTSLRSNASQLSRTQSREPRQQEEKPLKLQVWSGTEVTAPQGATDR

[10] = target: Sodium-dependent noradrenaline transporter (Homo sapiens) (UniProt P23975)
Sodium-dependent noradrenaline transporter (Homo sapiens), sequence (P23975 whole entry): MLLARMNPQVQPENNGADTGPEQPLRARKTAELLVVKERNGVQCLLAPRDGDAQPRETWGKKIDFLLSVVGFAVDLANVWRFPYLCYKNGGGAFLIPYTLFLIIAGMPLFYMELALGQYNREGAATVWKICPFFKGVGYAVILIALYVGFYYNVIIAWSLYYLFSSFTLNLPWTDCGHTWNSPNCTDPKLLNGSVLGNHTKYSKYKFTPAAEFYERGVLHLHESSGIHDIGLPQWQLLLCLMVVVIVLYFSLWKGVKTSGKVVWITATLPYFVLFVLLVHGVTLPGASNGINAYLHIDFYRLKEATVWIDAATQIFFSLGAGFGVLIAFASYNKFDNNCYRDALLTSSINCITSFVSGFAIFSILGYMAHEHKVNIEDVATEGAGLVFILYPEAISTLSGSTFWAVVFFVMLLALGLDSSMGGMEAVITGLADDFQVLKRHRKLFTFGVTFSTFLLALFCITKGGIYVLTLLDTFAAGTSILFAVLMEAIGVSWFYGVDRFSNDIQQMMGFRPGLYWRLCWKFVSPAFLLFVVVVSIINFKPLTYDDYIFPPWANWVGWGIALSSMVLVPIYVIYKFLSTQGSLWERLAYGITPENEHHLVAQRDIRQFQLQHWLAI

[11] = target: T4, 5-hydroxytryptamine receptor 2C (Homo sapiens) (UniProt P28335)
T4 sequence (whole entry): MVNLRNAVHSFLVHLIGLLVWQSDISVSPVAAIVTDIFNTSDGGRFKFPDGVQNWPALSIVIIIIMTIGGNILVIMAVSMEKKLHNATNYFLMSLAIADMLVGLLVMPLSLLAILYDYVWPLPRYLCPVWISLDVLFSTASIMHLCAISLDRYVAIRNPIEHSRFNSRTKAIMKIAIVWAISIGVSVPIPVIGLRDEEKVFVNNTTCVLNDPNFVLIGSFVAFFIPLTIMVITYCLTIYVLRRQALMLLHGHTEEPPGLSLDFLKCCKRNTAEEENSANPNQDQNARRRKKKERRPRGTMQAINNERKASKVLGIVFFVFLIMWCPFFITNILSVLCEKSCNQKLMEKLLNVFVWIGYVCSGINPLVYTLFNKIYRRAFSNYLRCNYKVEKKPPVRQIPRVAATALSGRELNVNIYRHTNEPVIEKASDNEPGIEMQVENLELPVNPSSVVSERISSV

[12] = target: Histamine H4 receptor (Homo sapiens) (UniProt Q9H3N8)
Histamine H4 receptor (Homo sapiens), sequence (Q9H3N8 whole entry): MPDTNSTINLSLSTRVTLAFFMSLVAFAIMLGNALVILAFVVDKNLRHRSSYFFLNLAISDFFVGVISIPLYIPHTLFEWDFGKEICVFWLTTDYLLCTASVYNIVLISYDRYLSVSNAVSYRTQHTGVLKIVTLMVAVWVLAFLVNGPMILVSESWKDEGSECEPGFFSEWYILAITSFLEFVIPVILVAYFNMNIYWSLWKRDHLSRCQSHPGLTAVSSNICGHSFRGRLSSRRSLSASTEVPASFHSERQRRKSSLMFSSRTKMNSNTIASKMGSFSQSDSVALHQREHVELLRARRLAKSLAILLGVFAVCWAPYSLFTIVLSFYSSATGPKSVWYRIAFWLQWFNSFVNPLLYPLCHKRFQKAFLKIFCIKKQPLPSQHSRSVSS

[13] = target: Sodium-dependent dopamine transporter (Homo sapiens) (UniProt Q01959)
Sodium-dependent dopamine transporter (Homo sapiens), sequence (Q01959 whole entry): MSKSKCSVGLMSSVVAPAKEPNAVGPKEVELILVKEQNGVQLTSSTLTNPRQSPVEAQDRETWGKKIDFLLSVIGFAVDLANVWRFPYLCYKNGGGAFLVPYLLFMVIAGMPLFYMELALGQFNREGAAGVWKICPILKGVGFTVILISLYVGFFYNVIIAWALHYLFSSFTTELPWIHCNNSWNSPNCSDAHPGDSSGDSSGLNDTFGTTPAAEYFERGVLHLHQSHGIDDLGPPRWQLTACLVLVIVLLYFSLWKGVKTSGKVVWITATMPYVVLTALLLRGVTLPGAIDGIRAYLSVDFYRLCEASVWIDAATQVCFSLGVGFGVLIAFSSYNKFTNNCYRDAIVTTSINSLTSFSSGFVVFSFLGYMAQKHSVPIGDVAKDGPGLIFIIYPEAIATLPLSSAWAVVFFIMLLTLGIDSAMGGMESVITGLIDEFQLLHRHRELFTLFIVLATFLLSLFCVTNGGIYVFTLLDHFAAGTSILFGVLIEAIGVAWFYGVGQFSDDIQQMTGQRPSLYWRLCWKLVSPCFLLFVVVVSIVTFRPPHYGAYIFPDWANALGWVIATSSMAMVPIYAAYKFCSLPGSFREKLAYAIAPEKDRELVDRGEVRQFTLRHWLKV

[14] = target: Sodium-dependent serotonin transporter (Homo sapiens) (UniProt P31645)
Sodium-dependent serotonin transporter (Homo sapiens), sequence (P31645 whole entry, looked up): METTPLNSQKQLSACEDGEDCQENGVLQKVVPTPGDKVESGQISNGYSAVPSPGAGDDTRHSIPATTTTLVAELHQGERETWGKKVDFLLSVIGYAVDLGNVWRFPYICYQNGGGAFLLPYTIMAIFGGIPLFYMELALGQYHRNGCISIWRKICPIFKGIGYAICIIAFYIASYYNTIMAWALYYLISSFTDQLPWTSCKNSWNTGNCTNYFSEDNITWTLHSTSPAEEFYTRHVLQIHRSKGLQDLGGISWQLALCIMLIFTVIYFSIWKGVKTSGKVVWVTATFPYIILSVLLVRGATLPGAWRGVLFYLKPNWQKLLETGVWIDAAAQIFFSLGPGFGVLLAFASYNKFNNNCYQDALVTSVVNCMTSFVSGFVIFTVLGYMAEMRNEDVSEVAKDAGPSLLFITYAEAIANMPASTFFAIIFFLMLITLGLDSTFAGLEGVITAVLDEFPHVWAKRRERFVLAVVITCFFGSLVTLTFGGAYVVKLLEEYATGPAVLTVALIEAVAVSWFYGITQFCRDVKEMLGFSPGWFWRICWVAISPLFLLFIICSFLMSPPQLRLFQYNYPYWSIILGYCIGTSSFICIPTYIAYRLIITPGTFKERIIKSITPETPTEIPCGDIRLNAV

[15] = target: T5, Muscarinic acetylcholine receptor M4 (Homo sapiens) (UniProt P08173)
T5 sequence (whole entry): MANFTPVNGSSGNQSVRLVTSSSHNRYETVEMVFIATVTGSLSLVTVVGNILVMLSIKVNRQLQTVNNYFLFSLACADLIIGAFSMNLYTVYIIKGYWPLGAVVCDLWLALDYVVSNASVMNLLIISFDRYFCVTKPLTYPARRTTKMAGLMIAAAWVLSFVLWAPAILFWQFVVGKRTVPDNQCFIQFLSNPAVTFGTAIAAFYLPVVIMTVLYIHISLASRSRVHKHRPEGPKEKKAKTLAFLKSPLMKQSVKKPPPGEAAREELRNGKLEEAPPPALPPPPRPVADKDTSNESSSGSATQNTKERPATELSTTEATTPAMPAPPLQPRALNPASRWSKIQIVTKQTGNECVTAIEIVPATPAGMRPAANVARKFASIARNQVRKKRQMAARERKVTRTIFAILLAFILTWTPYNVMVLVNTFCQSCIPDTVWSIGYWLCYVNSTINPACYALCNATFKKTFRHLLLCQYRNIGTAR

5-hydroxytryptamine receptor 1B (Homo sapiens), sequence (P28222 whole entry): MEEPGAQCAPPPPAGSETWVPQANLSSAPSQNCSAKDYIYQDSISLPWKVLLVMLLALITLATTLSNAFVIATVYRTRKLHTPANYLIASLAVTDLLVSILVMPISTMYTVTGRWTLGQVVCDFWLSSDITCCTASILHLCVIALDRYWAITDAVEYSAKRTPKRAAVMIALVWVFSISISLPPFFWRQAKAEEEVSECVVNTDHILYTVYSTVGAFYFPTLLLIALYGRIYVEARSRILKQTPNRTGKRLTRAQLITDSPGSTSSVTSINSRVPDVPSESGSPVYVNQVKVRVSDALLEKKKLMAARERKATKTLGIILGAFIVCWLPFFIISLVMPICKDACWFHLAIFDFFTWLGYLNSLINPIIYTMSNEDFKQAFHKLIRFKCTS

Structure (SMILES) | inhibition [1] [%] | inhibition [2] [%] | inhibition [3] [%] | inhibition [4] [%] | inhibition [5] [%] | inhibition [6] [%] | inhibition [7] [%] | inhibition [8] [%] | inhibition [9] [%] | inhibition [10] [%] | inhibition [11] [%] | inhibition [12] [%] | inhibition [13] [%] | inhibition [14] [%] | inhibition [15] [%]
C/C(=N\NC(=O)[C@@H]1C(=O)NC[C@H]1c1ccccc1)c1cccc(Br)c1 | 3.07 | -7.78 | 2.24 | 7.14 | 7.24 | -7.62 | 21.3 | 8.23 | 20.4 | 11.2 | 33.4 | – | – | – | –
CC(C)(N)C(=O)N[C@H](COCc1ccccc1)C(=O)N1CCC2(CC1)CN(S(C)(=O)=O)c1ccccc12 | – | 3.03 | – | -0.42 | 22.7 | -5.98 | 16.4 | – | 5.6 | -2.84 | -2.12 | 4.09 | 39.5 | 23.6 | –
N#Cc1cccc(C(=O)Nc2cc(-c3ccccc3)nn2-c2ccccc2)c1 | 23.3 | – | 4.16 | 7.12 | -0.08 | 0.47 | 8.95 | – | 33 | – | 7.87 | – | 2.12 | 6.36 | -7.29
C[C@H](Cc1cc2c(c(C(N)=O)c1)N(CCCO)CC2)NCCOc1ccccc1OCC(F)(F)F | 92.3 | 82.5 | 63.3 | – | 55.5 | 69.7 | 38.9 | 83.6 | 34.6 | -2.22 | – | -6.83 | 35.5 | – | -8.65
CN(C(=O)Cc1ccc(Cl)c(Cl)c1)C(CN1CCCC1)c1cccc(OCC(=O)O)c1 (stereo not drawn) | 11.1 | 3.8 | -5.18 | -7.51 | -3.77 | 5.65 | 24.1 | -9.81 | 28.1 | – | – | 13.7 | 26.4 | – | –
COc1ccc(C2(O)OC(=O)C(c3ccc4c(c3)OCO4)=C2Cc2cc(OC)c(OC)c(OC)c2)cc1 (stereo not drawn) | 2.7 | – | 7.04 | -8.58 | -2.26 | -2.96 | 6.35 | 12 | 24.4 | – | – | 14.6 | 27.4 | – | 1.32
COc1ccc(S(=O)(=O)N2c3ccc(Cl)cc3[C@](O)(c3ccccc3Cl)[C@@H]2C(=O)N2CCC[C@H]2C(N)=O)cc1OC | – | -3.82 | -3.97 | 7.89 | 11.8 | 0.34 | 16.4 | – | 15.4 | 2.92 | 21.8 | 21.7 | 42.4 | 46.5 | –
Cc1csc2c(N[C@@H](C)CN3CCN(S(=O)(=O)c4ccc(Cl)c(Cl)c4)CC3)ncnc12 | -1.11 | 14.6 | 19.2 | 2.97 | 32.8 | -6.72 | 86 | – | 45.2 | -2.51 | – | 9.69 | – | 44.9 | –
CCCSc1nc(N[C@@H]2C[C@H]2c2ccc(F)c(F)c2)c2nnn([C@@H]3C[C@H](OCCO)[C@@H](O)[C@H]3O)c2n1 | 19.3 | 15.4 | 7.98 | – | 29 | 41.2 | 35.4 | 16.8 | 3.94 | – | -3.61 | -2.55 | 75.8 | – | -3.79
C[C@H](NC[C@H](O)CP(=O)(O)CC1CCCCC1)c1ccc(Cl)c(Cl)c1 | – | -5.96 | 13.4 | 17.5 | 10.4 | – | 49.6 | – | 26 | – | – | 1.86 | 62.1 | -2.56 | -3.27
Nc1nc2c(c(N3CCNCC3)n1)CCC1=C2[C@@H]2CCCC[C@@H]2O1 | – | 30.6 | 8.96 | 34.4 | 25.9 | 31.9 | 86.4 | 17.8 | 43.4 | – | 7.29 | 89.8 | – | – | -0.51
c1ccc(N2CCN(Cc3nc4ccccc4[nH]3)CC2)nc1 | 6.19 | 4.37 | 87.2 | 0.89 | 22.3 | – | 50.5 | 33.7 | 10.1 | – | -9.96 | – | 22.6 | – | -4.29
CC(C)NCC(O)c1ccc(N)c(C#N)c1 (stereo not drawn) | – | -3.24 | -4.2 | 3.66 | 1.95 | – | 22.7 | 20.1 | 5.77 | 4.01 | -7.04 | 0.52 | 29 | – | –
COc1ccccc1CN[C@H]1C2CCN(CC2)[C@H]1C(c1ccccc1)c1ccccc1 | 8.03 | 1.59 | 15.3 | 11.3 | 9.32 | 3.23 | 48.5 | -6.37 | 8.86 | – | -3.39 | 27.6 | 40 | – | -4.3
